Results published in BigSolDB 2.1.

Nc1cccc2c1CN(C1CCC(=O)NC1=O)C2=O (stereo not given)
solubility (mole fraction)
Conditions	293.15 K	298.15 K	303.15 K	308.15 K	313.15 K	318.15 K	323.15 K	328.15 K	333.15 K
in acetonitrile	0.000539	0.000549	0.000561	0.000573	0.000588	0.000603	0.000618	0.000634	0.000652
in ethanol	0.000164	0.000183	0.000209	0.000238	0.00027	0.000309	0.000357	0.000404	0.00046
in ethyl acetate	0.000127	0.000144	0.000164	0.000184	0.00021	0.000239	0.000277	0.000319	0.000367
in isopropanol	6.37e-05	7.79e-05	9.5e-05	0.000116	0.000141	0.000168	0.000195	0.000231	0.000271
in methanol	0.000252	0.000269	0.000288	0.000309	0.000332	0.000359	0.000394	0.000434	0.00048
